Like-named read-outs stand apart in the source and are kept apart here.
Experiments:
[1] = system: NCI‐60 human cancer cell lines; design: method as in PMID 20442306; settings: NCI-60 panel; read-out: mean GI50 in the same panel of cell lines; cited from earlier work
Renal subpanel [2] = test: NCI-60 one-dose screen, renal subpanel; type: cell-based, human; settings: 10 µM, 48 h
Procedure: (§1) To explore the potential antiproliferative properties of the newly synthesized derivatives, they were submitted to the National Cancer Institute's (NCI) Developmental Therapeutics Program (DTP) for screening at 10 μM in a panel of approximately 60 human cancer cell lines from different cancer types. The results are reported as the growth percentage (GP), which is the growth of the treated cells with each compound for 48 h compared to the untreated controls (Figure 2). […] The initial screening results are summarized in Figure 2, and the mean GP values of each subpanel are depicted in Figure 3. The full reports are compiled in the Supplementary Section.
(§2) All the reported selenoesters (1–6) were submitted to the DTP of NCI. First, they were screened at a single dose (10^−5 M) against a panel of 60 cancer cell lines derived from different tumor types following the methodology available (https://dtp.cancer.gov/discovery_development/nci-60/methodology.htm). As all the compounds satisfied the threshold inhibition criteria established, they were further assessed at five concentrations (0.01, 0.1, 1, 10, and 100 µM) against the same cell panel to obtain their corresponding dose–response curves and three antitumor parameters (GI50, TGI, and LC50) by regression. GraphPad Prism 7.0 Software was used to represent the corresponding graphs.

[3] = system: NSCL (non‐small‐cell lung cancer) subpanel; test: NCI-60 five-dose assay, NSCL subpanel; type: cell-based; settings: Homo sapiens, 48 h, read-out: Mean GI50 NSCL
Procedure: (§3) All the compounds were selected for further testing since they fulfilled the set NCI one‐dose screening parameters for threshold inhibition. They were tested at five different concentrations (0.01, 0.1, 1, 10, and 100 μM) for 48 h against the same cell line panel and the dose–response curves along with three response parameters (50% growth inhibitory concentration [GI50], the 50% lethal concentration [LC50], and the total growth inhibition [TGI]) were calculated for every cancer cell line. The full reported data and corresponding graphs are compiled in Supporting Information S1. Average values of GI50, TGI, and LC50 values of all the reported selenoesters in all the subpanels are represented in Figure 4.
as §2

hCA IX = target: T1, hCA IX (Homo sapiens, UniProt Q16790); test: biochemical; settings: stopped flow technique, mean from three assays
T1 construct: made in house
Procedure: (§7) An Applied Photophysics stopped‐flow instrument was used to assay the CA‐catalyzed CO2 hydration activity [52]. […] The uncatalyzed rates were determined in the same manner and subtracted from the total observed rates. Stock solutions of the inhibitor (0.1 mM) were prepared in distilled–deionized water, and dilutions up to 0.01 nM were done thereafter with the assay buffer. Inhibitor and enzyme solutions were preincubated together for 15 min at room temperature before the assay, to allow for the formation of the E–I complex. The inhibition constants were obtained by Nonlinear least‐squares methods using PRISM 3 and the Cheng‐Prusoff equation as reported earlier and represent the mean from at least three different determinations. All CA isoforms were recombinant proteins obtained in‐house, as reported earlier [54, 55, 56].

Prostate subpanel [4] = test: NCI-60 five-dose assay, prostate subpanel; type: cell-based, human; settings: Homo sapiens, 48 h
Procedure: as §3, §2

Leukemia subpanel [5] = test: NCI-60 one-dose screen, leukemia subpanel; type: cell-based, human; settings: 10 µM, 48 h
Procedure: as §1, §2

OVCAR‐5 = test: NCI-60 one-dose screen, OVCAR-5; type: cell-based, human; settings: 10 µM, 48 h
Procedure: as §1, §2

[6] = system: OVCAR‐5 ovarian cancer cells; test: NCI-60 five-dose assay, OVCAR-5; type: cell-based, human; settings: 48 h
Procedure: as §3, §2

Colon subpanel [7] = test: NCI-60 five-dose assay, colon subpanel; type: cell-based; settings: Homo sapiens, 48 h
Procedure: as §3, §2

Renal subpanel [8] = test: NCI-60 five-dose assay, renal subpanel; type: cell-based; settings: Homo sapiens, 48 h, read-out: Mean GI50 Renal
Procedure: as §3, §2

[9] = system: NSCL (non‐small‐cell lung cancer) subpanel; test: NCI-60 one-dose screen, NSCL subpanel; type: cell-based, human; settings: 10 µM, 48 h
Procedure: as §1, §2

CNS subpanel [10] = test: NCI-60 one-dose screen, CNS subpanel; type: cell-based, human; settings: 10 µM, 48 h
Procedure: as §1, §2

Ovarian subpanel [11] = test: NCI-60 five-dose assay, ovarian subpanel; type: cell-based; settings: Homo sapiens, 48 h, read-out: Mean GI50 Ovarian
Procedure: as §3, §2

Melanoma subpanel [12] = test: NCI-60 five-dose assay, melanoma subpanel; type: cell-based; settings: Homo sapiens, 48 h, read-out: Mean GI50 Melanoma
Procedure: as §3, §2

hCA I = target: T2, hCA I (Homo sapiens, UniProt P00915); test: hCA I inhibition, stopped-flow CO2 hydration assay; type: biochemical; settings: stopped flow technique, mean from three assays
T2 construct: made in house
T2 sequence (P00915 whole entry): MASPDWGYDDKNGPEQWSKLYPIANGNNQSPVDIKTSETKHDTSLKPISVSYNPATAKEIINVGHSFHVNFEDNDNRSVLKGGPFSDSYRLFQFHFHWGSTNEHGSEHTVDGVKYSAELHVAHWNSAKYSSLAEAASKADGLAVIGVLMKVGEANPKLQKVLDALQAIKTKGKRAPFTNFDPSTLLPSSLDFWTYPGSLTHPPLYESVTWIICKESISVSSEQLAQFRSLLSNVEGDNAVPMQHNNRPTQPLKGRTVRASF
Procedure: as §7

Prostate subpanel [13] = test: NCI-60 one-dose screen, prostate subpanel; type: cell-based, human; settings: 10 µM, 48 h
Procedure: as §1, §2

hCA XII = target: T3, hCA XII (Homo sapiens, UniProt O43570); test: hCA XII inhibition, stopped-flow CO2 hydration assay; type: biochemical; settings: stopped flow technique, mean from three assays
T3 construct: made in house
T3 sequence (O43570 25-354): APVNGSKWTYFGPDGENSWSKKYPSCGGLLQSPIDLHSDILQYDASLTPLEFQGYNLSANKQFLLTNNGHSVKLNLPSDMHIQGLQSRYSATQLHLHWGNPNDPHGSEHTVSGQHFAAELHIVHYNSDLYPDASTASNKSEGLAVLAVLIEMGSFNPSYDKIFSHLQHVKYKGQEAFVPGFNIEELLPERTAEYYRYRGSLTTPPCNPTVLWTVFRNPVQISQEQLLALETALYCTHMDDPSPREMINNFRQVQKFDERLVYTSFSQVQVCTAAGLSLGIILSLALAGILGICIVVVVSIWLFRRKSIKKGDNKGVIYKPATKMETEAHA
Procedure: as §7

Colon subpanel [14] = test: NCI-60 one-dose screen, colon subpanel; type: cell-based, human; settings: 10 µM, 48 h
Procedure: as §1, §2

Breast subpanel [15] = test: NCI-60 five-dose assay, breast subpanel; type: cell-based; settings: Homo sapiens, 48 h, read-out: Mean GI50 Breast
Procedure: as §3, §2

hCA II = target: T4, hCA II (Homo sapiens, UniProt P00918); test: hCA II inhibition, stopped-flow CO2 hydration assay; type: biochemical; settings: stopped flow technique, mean from three assays
T4 construct: made in house
Procedure: as §7

Melanoma subpanel [16] = test: NCI-60 one-dose screen, melanoma subpanel; type: cell-based, human; settings: 10 µM, 48 h
Procedure: as §1, §2

[17] = system: L. infantum promastigotes; test: Leishmanicidal activity against promastigotes (MTT), L. infantum; type: cell-based, Leishmania infantum; settings: Leishmania infantum, 48 h, mean ± SD, read-out: L. infantum IC50
Procedure: (§4) The synthesized compounds were tested for their antileishmanial activity against promastigotes of L. major and L. infantum at four concentrations (1, 10, 50, and 100 µM) for 48 h using the 3‐(4,5‐dimethylthiazol‐2‐yl)‐2,5‐diphenyltetrazolium bromide (MTT) assay. In this evaluation, the activity was expressed in IC50 (concentration inhibiting the parasite growth by 50%). […] The CC50 was defined as the concentration of selenoesters that led to a reduction in the viability of the macrophages, such that only 50% of the cells survived when compared to the control group. This cell line, derived from the blood of a human with acute monocytic leukemia, was chosen as it has been widely reported that it resembles tissue macrophages to various extents as well as supports the infection by numerous Leishmania promastigotes. The selectivity indexes (SIs) were calculated as the ratio between toxicity on macrophages (THP‐1 cells)/antileishmanial activity. The data for standard control drugs (miltefosine and paromomycin) are included for comparison purposes.
(§5) The promastigotes of L. major (clone VI, MHOM/IL/80/Friendlin) and L. infantum (BCN‐150) were grown at 26°C under continuous shaking in M199 1× medium (Sigma, USA). This media was supplemented with 10% of heat‐inactivated fetal bovine serum (FBS) (Gibco, USA), 0.0005% (w/v) hemin, 0.1 mM adenine, 25 mM HEPES (pH 7.2), 0.0001% (w/v) biotin, and 100 UI/mL penicillin and […] streptomycin (Gibco, USA).
(§6) The antileishmanial activity of the reported selenoesters was determined using the MTT assay as previously described during the logarithmic growth phase of the tested promastigotes of L. major and L. infantum. Briefly, the Leishmania parasites were seeded into 96‐well flat‐bottom plates (3 × 10^5 parasites/100 µL) and treated with four different concentrations ranging between 1 and 100 µM of each selenoester at 26°C for 48 h. Afterwards, 20 µL of MTT (5 mg/mL in PBS) was added to each well and incubated for 4 h under the same conditions. Then, 80 µL/well of DMSO was added to dissolve the resultant formazan crystals. The absorbances were determined on a Multiskan EX photometric plate reader for microplates at 540 nm. Three independent experiments performed in triplicate were carried out for each compound, and OriginPro 8.5.1 Software was used to calculate the IC50 values by fitting the data to a dose–inhibition sigmoid curve.

Leukemia subpanel [18] = test: NCI-60 five-dose assay, leukemia subpanel; type: cell-based; settings: Homo sapiens, 48 h
Procedure: as §3, §2

Ovarian subpanel [19] = test: NCI-60 one-dose screen, ovarian subpanel; type: cell-based, human; settings: 10 µM, 48 h
Procedure: as §1, §2

Breast subpanel [20] = test: NCI-60 one-dose screen, breast subpanel; type: cell-based, human; settings: 10 µM, 48 h
Procedure: as §1, §2

L. major promastigotes [21] = test: Leishmanicidal activity against promastigotes (MTT), L. major; type: cell-based, Leishmania major; settings: Leishmania major, 48 h, mean ± SD, read-out: L. major IC50
Procedure: as §4, §5, §6

CNS subpanel [22] = test: NCI-60 five-dose assay, CNS subpanel; type: cell-based; settings: Homo sapiens, 48 h, read-out: Mean GI50 CNS
Procedure: as §3, §2

L. major promastigotes [23] = system: L. major promastigotes; design: method as in PMID 37570815, PMID 36364304; settings: reference drugs; cited from earlier work
THP‐1 cells = system: THP‐1 cells; design: method as in PMID 37570815, PMID 36364304; settings: reference drugs; cited from earlier work
[24] = system: L. infantum promastigotes; design: method as in PMID 37570815, PMID 36364304; settings: reference drugs; cited from earlier work

Structure (SMILES): O=c1[nH]cc(F)c(=O)[nH]1 [5‐fluorouracil]
- GI50 [1]: 18 µM

Structure (SMILES): N#Cc1ccc(NC(=O)C[Se]C(=O)c2ccco2)cc1C(F)(F)F [Compound 4, Se‐(2‐((4‐cyano‐3‐(trifluoromethyl)phenyl)amino)‐2‐oxoethyl)furan‐2‐carboselenoate]
- average growth cell value, Renal (Renal subpanel [2]): -40.11%
- GI50 [3]: 1.56 µM
- Ki (hCA IX): 19 µM
- GI50 (Prostate subpanel [4]; read-out: Mean GI50 Prostate): 1.65 µM
- CC50 (Prostate subpanel [4]; read-out: Mean LC50 Prostate): 53.2 µM
- average growth cell value, Leukemia (Leukemia subpanel [5]): 5.71%
- behaviour in OVCAR‐5 (OVCAR‐5): cytotoxic activity
- cytotoxicity against OVCAR‐5 [6]: remarkable cytotoxicity
- GI50 (Colon subpanel [7]; read-out: Mean GI50 Colon): 1.91 µM
- CC50 (Colon subpanel [7]; read-out: Mean LC50 Colon): 27.6 µM
- GI50 (Renal subpanel [8]): 1.92 µM
- average growth cell value, NSCL [9]: -37.92%
- average growth cell value, CNS (CNS subpanel [10]): -60.59%
- GI50 (Ovarian subpanel [11]): 1.94 µM
- GI50 (Melanoma subpanel [12]): 1.44 µM
- Ki (hCA I): > 100 µM
- average growth cell value, Prostate (Prostate subpanel [13]): -28.10%
- Ki (hCA XII): 77.1 µM
- average growth cell value, Colon (Colon subpanel [14]): -19.82%
- GI50 (Breast subpanel [15]): 1.72 µM
- Ki (hCA II): 93.8 µM
- average growth cell value, Melanoma (Melanoma subpanel [16]): -56.62%
- IC50 [17]: 28.6 ± 2.4 µM
- GI50 (Leukemia subpanel [18]; read-out: Mean GI50 Leukemia): 1.87 µM
- CC50 (Leukemia subpanel [18]; read-out: Mean LC50 Leukemia): > 100 µM
- average growth cell value, Ovarian (Ovarian subpanel [19]): -28.29%
- average growth cell value, Breast (Breast subpanel [20]): -25.05%
- IC50 (L. major promastigotes [21]): 26.5 ± 3.69 µM
- GI50 (CNS subpanel [22]): 1.8 µM

Structure (SMILES): CCCCCCCCCCCCCCCCOP(=O)([O-])OCC[N+](C)(C)C [Miltefosine, miltefosine]
- IC50 (L. major promastigotes [23]): 66.6 ± 11.6 µM
- CC50 (THP‐1 cells): 13.3 ± 2.8 µM
- IC50 [24]: 31.9 ± 2.3 µM

Structure (SMILES): NC[C@@H]1O[C@H](O[C@H]2[C@@H](O)[C@H](O[C@@H]3[C@@H](O)[C@H](N)C[C@H](N)[C@H]3O[C@H]3O[C@H](CO)[C@@H](O)[C@H](O)[C@H]3N)O[C@@H]2CO)[C@H](N)[C@@H](O)[C@@H]1O [Paromomycin, paromomycin]
- IC50 (L. major promastigotes [23]): 71 ± 3.3 µM
- CC50 (THP‐1 cells): 39 ± 13.7 µM
- IC50 [24]: 18 ± 1 µM

Structure (SMILES): COc1cc2ncnc(Nc3ccc(F)c(Cl)c3)c2cc1OCCCN1CCOCC1 [gefitinib]
- GI50 [1]: 3.2 µM

Structure (SMILES): O=C1[O][Pt]2([NH][C@@H]3CCCC[C@H]3[NH]2)[O]C1=O [oxaliplatin]
- GI50 [1]: 2.8 µM

— article PMC12676205, “New Se‐Compounds With Antileishmanial, Antitumor, and Carbonic Anhydrase Inhibitory Properties” (Archiv Der Pharmazie, 2025)
